# Laboratory results reported in patent publication US10349662B2, “Insecticidal compositions and methods of using the same” (priority 2011, dated 2019).
# Where “and” joins values, the source holds several entries; their conditions need not be identical. Equal entries are not always repeated. Where two headings read alike, the source gives them in different places.
# What was measured:
# Cytochrome P450 enzyme = assay: P450 activity assay (7-ethoxycoumarin, fluorescence); type: biochemical, A. aegypti; settings: FIG. 2; for inhibition of P450 activity: added to the assay
# Description: Cytochrome P450 enzyme solution was prepared by homogenizing 15, 3 to 5 day old, A. aegypti females and centrifuging the mixture at 10,000 g for 1 minute. The pellet was discarded, and the supernatant was used as the P450 enzyme stock solution. 10 μL of this P450 enzyme stock and 90 μL of 7-ethoxycoumarin solution (0.526 mM of 7-ethoxycoumarin, 1.11 mM NADPH, 0.05 mM phosphate buffer) was added to each well of the micropipette plate to begin the reaction. During the reaction, the micropipette plate was covered with aluminum foil to prevent photo-bleaching. The reaction was incubated at 30° C. for 4 hours. The reaction was stopped by adding 30 μL of stop solution (0.1 mM glycine, pH 10.4, 50% ethanol). The micropipette plate was then analyzed by measuring the fluorescence (Emission=460 nm, Excitation=360 nm) of each well. High fluorescence was directly related to product, and thus indicated a high level of P450 activity.
# [1] = cited from earlier work
# Aedes aegypti mosquitoes = assay: Topical bioassay on adult female Aedes aegypti mosquitoes (knockdown 1 h, mortality 24 h; Colby calculation for combinations); type: in vivo
# Source text: Components of a composition can have a synergistic or additive effect on insecticidal activity. Components have an additive effect when the effect of the combination is equal to the sum of the effects of each individual component. In contrast, components have a synergistic effect when the effect of the combination exceeds the sum of the effects of the components when applied individually. The effect (E) of a combination of two compounds may be calculated using the Colby formula (1) (S. R. Colby, “Calculating Synergistic and Antagonistic Responses of Herbicide Combinations”, Weeds 1967, 15, 20-22):
# If the actual insecticidal kill rate is the calculated value (E), then the action of the combination is additive. If the actual insecticidal kill rate exceeds the calculated value (E), then the action of the combination is super-additive, that is, a synergistic effect is present. If the insecticidal kill rate is lower than the calculated value (E), then the action of the combination is considered antagonistic.
# Adult female Aedes aegypti mosquitoes were segregated in 18″×18″ screen cages based on date of eclosion, therefore the exact age of the mosquitoes were known for bioassays.
# Ten female mosquitoes, aged four to six days after eclosion, were aspirated out of their respective cage and into a small glass jar. The mosquitoes were then anesthetized with CO2 gas for 30 seconds. After the adults were anesthetized, they were quickly placed on a plastic platform for treatment application. Treatments were serially diluted (using a BrandTech Scientific Transferpette S pipette (100-1000 μL), labeled centrifuge tubes, and a vortex mixer) from stocks of insecticides using reagent grade acetone as the diluent to concentrations as indicated for each treatment solution. A treatment solution may contain additional ingredients as indicated for each study.
# Using a Hamilton PB00-1 Repeating Dispenser with a Hamilton 25 Microliter Syringe, 0.5 μL of each treatment solution was applied to the thorax of each mosquito. Immediately following the application of the treatment, the mosquitoes were gently transferred into a clean paper cup and covered with screen. The mesh screen prevented the mosquitoes from escaping and allowed the specimens to be viewed for ratings. A cotton ball soaked with 10% sucrose solution was inserted into a side hole of each cup for hydration and nourishment. Each treatment variable in the study was replicated three times using separate cups for each replication.
# The untreated controls treatments were anesthetized for 30 seconds and gently transferred to the paper cups. The acetone treated control was treated exactly as described above except that the solution applied to each mosquito was undiluted acetone.
# The condition of the mosquitoes in each cup was recorded at one hour and 24 hours after initial treatment. The condition classifications used were (1) alive and flying, (2) alive and unable to fly, or (3) dead. The percent mortality for each treatment was calculated by summing the mortalities of each replicate then calculating the percent dead from the total number of mosquitoes.
# Where indicated, the mortality data were subjected to probit analysis using the Statistical Analysis System Version 9.1 program PROC PROBIT (SAS Institute (2003) PROC user's manual, version 9.1. SAS Institute, Cary, N.C.).
# [2] = tested on: Culex quinquefasciatus mosquitoes; assay: Topical bioassay on adult female Culex quinquefasciatus mosquitoes (knockdown 1 h, mortality 24 h; Colby calculation for combinations); type: in vivo
smiles,measurement,setting,value
"CCCCOCCOCCOCc1cc2c(cc1CCC)OCO2 [PBO, piperonyl butoxide, reference compound]",inhibition of P450 activity,Cytochrome P450 enzyme,acted as inhibitors
C=C1CC[C@H]2O[C@]2(C)CC[C@@H]2[C@@H]1CC2(C)C [Caryophyllene Oxide-Beta],Vapor Pressure (@ 25° C.),[1],0.01 mmHg
same,Solubility (in water @ 25° C.),[1],2.21 µg/mL
C=C1/C=C/[C@H](C(C)C)CC/C(C)=C/CC1 [Germacrene D],Vapor Pressure (@ 25° C.),[1],0.023 mmHg
same,Solubility (in water @ 25° C.),[1],0.013 µg/mL
"CN/C(=N/CC1CCOC1)N[N+](=O)[O-] (stereo not shown) [Dinotefuran, dinotefuran, reference compound]",1 hour knockdown,Aedes aegypti mosquitoes; 0.004 μg/mosquito,0%
same,% MORTALITY AFTER 24 HRS,Aedes aegypti mosquitoes; 0.004 μg/mosquito,0%
same,1 hour knockdown,Aedes aegypti mosquitoes; 0.006 μg/mosquito,0% and 3%
same,mortality at 0.004 µg/mosquito,"Aedes aegypti mosquitoes; Aedes aegypti, topical, 24 h, read-out: % MORTALITY AFTER 24 HRS, 0.004 μg/mosquito",0%
same,LD50,"Aedes aegypti mosquitoes; topical application, adult Aedes aegypti",0.06 μg/mosquito
same,1 hour knockdown,[2]; 0.008 μg/mosquito,10%
same,% MORTALITY AFTER 24 HRS,[2]; 0.008 μg/mosquito,77% and 73%
C=C1CCC2CC1C2(C)C (stereo not drawn) [Pinene Beta],Vapor Pressure (@ 25° C.),[1],2.93 mmHg
C=C(C)C1CC=C(CO)CC1 (racemic) [Pennyl Alcohol (racemic)],Vapor Pressure (@ 25° C.),[1],0.00478 mmHg
same,Solubility (in water @ 25° C.),[1],471 µg/mL
C=C/C(C)=C/C/C=C(\C)CCC=C(C)C [Farnesene Alpha],Vapor Pressure (@ 25° C.),[1],0.025 mmHg
same,Solubility (in water @ 25° C.),[1],0.011 µg/mL
C=CC(C)(O)CCC=C(C)C (stereo not shown) [Linalool],Vapor Pressure (@ 25° C.),[1],0.16 mmHg
same,Viscosity (@ 25° C.),[1],4.4 mPa
"C=C(C)C1CC=C(C=O)CC1 (stereo not shown) [Perillaldehyde, perillaldehyde]",1 hour knockdown,Aedes aegypti mosquitoes; 3%,53%
same,mortality at 1 %,"Aedes aegypti mosquitoes; Aedes aegypti, topical, 24 h, read-out: % MORTALITY AFTER 24 HRS, 1%",3%
same,mortality at 1 %,"Aedes aegypti mosquitoes; Aedes aegypti, topical, 24 h, read-out: % MORTALITY AFTER 24 HRS, single active, 1%",0%
same,mortality at 3 %,"Aedes aegypti mosquitoes; Aedes aegypti, topical, 24 h, read-out: % MORTALITY AFTER 24 HRS, single active, 3%",73%
same,1 hour knockdown,[2]; 2%,33%
same,% MORTALITY AFTER 24 HRS,[2]; 2%,13%
same,% MORTALITY AFTER 24 HRS,[2]; 3%,13%
same,inhibition of P450 activity,Cytochrome P450 enzyme,acted as inhibitors
same,inhibition of P450 activity relative to PBO,Cytochrome P450 enzyme; perillaldehyde at 1% vs PBO at 2%,as potent an inhibitor of P450 as PBO at 2%
same,inhibition of P450 activity relative to PBO,Cytochrome P450 enzyme; perillaldehyde at 10% vs PBO at 2%,a more potent inhibitor of P450 than PBO at 2%
same,Vapor Pressure (@ 25° C.),[1],0.0463 mmHg
same,Solubility (in water @ 25° C.),[1],160.7 µg/mL
C=C1CC/C=C(\C)CC[C@@H]2[C@@H]1CC2(C)C [β-Caryophyllene],1 hour knockdown,Aedes aegypti mosquitoes; 1%,0%
same,% MORTALITY AFTER 24 HRS,Aedes aegypti mosquitoes; 1%,0%
same,% MORTALITY AFTER 24 HRS,Aedes aegypti mosquitoes; 3%,0%
same,% MORTALITY AFTER 24 HRS,"Aedes aegypti mosquitoes; 3%, listed as β-CARYOPHYLLENE",77%
same,1 hour knockdown,Aedes aegypti mosquitoes; 5%,10%
same,% MORTALITY AFTER 24 HRS,Aedes aegypti mosquitoes; 5%,17%
same,1 hour knockdown,Aedes aegypti mosquitoes; 10%,57%
same,% MORTALITY AFTER 24 HRS,Aedes aegypti mosquitoes; 10%,40%
same,1 hour knockdown,Aedes aegypti mosquitoes; 20%,93%
same,% MORTALITY AFTER 24 HRS,Aedes aegypti mosquitoes; 20%,83%
same,% MORTALITY AFTER 24 HRS,"Aedes aegypti mosquitoes; single active, 3%",7% and 10%
same,Vapor Pressure (@ 25° C.),[1],0.031 mmHg
same,Solubility (in water @ 25° C.),[1],0.05 µg/mL
CC(C)=CCC[C@]1(C)[C@H]2CC=C(C)[C@@H]1C2 (relative stereo) [Bergamotene Trans Alpha],Vapor Pressure (@ 25° C.),[1],0.028 mmHg
same,Solubility (in water @ 25° C.),[1],0.030 µg/mL
